Experimental data published in paper PMC11480511 (Scientific Reports, 2024).
Converted amounts (≈) assume the structure as drawn. Where two headings read alike, the source gives them in different places.

Experiments:
MOLT-4 = assay: NCI single-dose growth inhibition screen; assay type: cell-based; settings: Homo sapiens; Leukemia MOLT-4; single dose 10^−5 M
RPMI-8226 = assay: NCI single-dose growth inhibition screen; assay type: cell-based; settings: Homo sapiens; Leukemia RPMI-8226; single dose 10^−5 M
SR = assay: NCI single-dose growth inhibition screen; assay type: cell-based; settings: Homo sapiens; Leukemia SR; single dose 10^−5 M
A549/ATCC = assay: NCI single-dose growth inhibition screen; assay type: cell-based; settings: Homo sapiens; Non-Small Cell Lung Cancer A549/ATCC; single dose 10^−5 M
EKVX = assay: NCI single-dose growth inhibition screen; assay type: cell-based; settings: Homo sapiens; Non-Small Cell Lung Cancer EKVX; single dose 10^−5 M
NCI-H322M = assay: NCI single-dose growth inhibition screen; assay type: cell-based; settings: Homo sapiens; Non-Small Cell Lung Cancer NCI-H322M; single dose 10^−5 M
NCI-H460 = assay: NCI single-dose growth inhibition screen; assay type: cell-based; settings: Homo sapiens; Non-Small Cell Lung Cancer NCI-H460; single dose 10^−5 M
NCI-H522 = assay: NCI single-dose growth inhibition screen; assay type: cell-based; settings: Homo sapiens; Non-Small Cell Lung Cancer NCI-H522; single dose 10^−5 M
SF-268 = assay: NCI single-dose growth inhibition screen; assay type: cell-based; settings: Homo sapiens; CNS Cancer SF-268; single dose 10^−5 M
SF-539 = assay: NCI single-dose growth inhibition screen; assay type: cell-based; settings: Homo sapiens; CNS Cancer SF-539; single dose 10^−5 M
LOX IMVI = assay: NCI single-dose growth inhibition screen; assay type: cell-based, human; settings: Homo sapiens, LOX IMVI, Melanoma LOX IMVI; single dose 10^−5 M
MALME-3 M = assay: NCI single-dose growth inhibition screen; assay type: cell-based; settings: Homo sapiens; Melanoma MALME-3 M; single dose 10^−5 M
M14 = assay: NCI single-dose growth inhibition screen; assay type: cell-based; settings: Homo sapiens; Melanoma M14; single dose 10^−5 M
Protocol: Following the guidelines established by the drug evaluation department of the National Cancer Institute (NCI), USA, all target compounds 3a–l were examined against 60 cancer cell lines at a single concentration of 10 µM.
The anti-cancer potential of the tested compounds was evaluated at the National cancer institute (NCI), USA, against 9 panels of 60 various cell lines derived from nine human tumours available usually at NCI library. The procedures for the screening were described in details in NCI website (dttp://www.dtp.nci.nih.gov.) and were done according to NCI protocols[60] . The anticancer screening was carried out at single dose of 10^−5 M, NCI, Bethesda, USA. The results obtained as growth inhibition (%).

MDA-MB-435 = assay: NCI single-dose growth inhibition screen; assay type: cell-based; settings: Homo sapiens; Melanoma MDA-MB-435; single dose 10^−5 M
SK-MEL-5 = assay: NCI single-dose growth inhibition screen; assay type: cell-based, human; settings: Homo sapiens, SK-MEL-5, Melanoma SK-MEL-5; single dose 10^−5 M
UACC-257 = assay: NCI single-dose growth inhibition screen; assay type: cell-based; settings: Homo sapiens; Melanoma UACC-257; single dose 10^−5 M
IGROV1 = assay: NCI single-dose growth inhibition screen; assay type: cell-based; settings: Homo sapiens, IGROV-1; Ovarian Cancer IGROV1; single dose 10^−5 M
OVCAR-8 = assay: NCI single-dose growth inhibition screen; assay type: cell-based; settings: Homo sapiens; Ovarian Cancer OVCAR-8; single dose 10^−5 M
ACHN = assay: NCI single-dose growth inhibition screen; assay type: cell-based; settings: Homo sapiens; Renal Cancer ACHN; single dose 10^−5 M
CAKI-1 = assay: NCI single-dose growth inhibition screen; assay type: cell-based; settings: Homo sapiens; Renal Cancer CAKI-1; single dose 10^−5 M
RXF 393 = assay: NCI single-dose growth inhibition screen; assay type: cell-based; settings: Homo sapiens; Renal Cancer RXF 393; single dose 10^−5 M
UO-31 = assay: NCI single-dose growth inhibition screen; assay type: cell-based, human; settings: Homo sapiens, UO-31, Renal Cancer UO-31; single dose 10^−5 M
MDA-MB231 = assay: NCI single-dose growth inhibition screen; assay type: cell-based; settings: Homo sapiens, MDA-MB-231; Breast Cancer MDA-MB231; single dose 10^−5 M
HS 578T = assay: NCI single-dose growth inhibition screen; assay type: cell-based; settings: Homo sapiens; Breast Cancer HS 578T; single dose 10^−5 M
BT-549 = assay: NCI single-dose growth inhibition screen; assay type: cell-based; settings: Homo sapiens; Breast Cancer BT-549; single dose 10^−5 M
T-47D = assay: NCI single-dose growth inhibition screen; assay type: cell-based; settings: Homo sapiens, T47D; Breast Cancer T-47D; single dose 10^−5 M
PC-3 = assay: NCI single-dose growth inhibition screen; assay type: cell-based; settings: Homo sapiens; Prostate Cancer PC-3; single dose 10^−5 M
DU-145 = assay: NCI single-dose growth inhibition screen; assay type: cell-based; settings: Homo sapiens; Prostate Cancer DU-145; single dose 10^−5 M
E. coli ATCC 25,922 = assay: Antibacterial screening, agar cup diffusion method; assay type: cell-based; settings: read-out: Minimum inhibitory concentrations (MIC, µM) E. coli ATCC 25,922
[1] = test system: P. aeruginosa ATCC 27,853; assay: Antibacterial screening, agar cup diffusion method; assay type: cell-based; settings: Pseudomonas aeruginosa, ATCC27; Gram –ve strain; read-out: Minimum inhibitory concentrations (MIC, µM) P. aeruginosa ATCC 27,853
[2] = Escherichia coli, ATCC25, Gram –ve strain

SMILES	inhibition at 10 µM (MOLT-4)	inhibition at 10 µM (SR)	inhibition at 10 µM (A549/ATCC)	inhibition at 10 µM (EKVX)	inhibition at 10 µM (NCI-H322M)	inhibition at 10 µM (NCI-H460)	inhibition at 10 µM (NCI-H522)	inhibition at 10 µM (SF-268)	inhibition at 10 µM (SF-539)	inhibition at 10 µM (LOX IMVI)	inhibition at 10 µM (MALME-3 M)	inhibition at 10 µM (M14)	inhibition at 10 µM (MDA-MB-435)	inhibition at 10 µM (SK-MEL-5)	inhibition at 10 µM (UACC-257)	inhibition at 10 µM (IGROV1)	inhibition at 10 µM (OVCAR-8)	inhibition at 10 µM (ACHN)	inhibition at 10 µM (CAKI-1)	inhibition at 10 µM (RXF 393)	other results
O=C(O)c1cn(C2CC2)c2cc(N3CCN(C(=O)CCCN4C(=O)SC(=Cc5cccc([N+](=O)[O-])c5)C4=O)CC3)c(F)cc2c1=O [3d, 1-cyclopropyl-6-fluoro-7-[4-[4-[5-[(3-nitrophenyl)methylene]-2,4-dioxo-thiazolidin-3-yl]butanoyl]piperazin-1-yl]-4-oxoquinoline-3-carboxylic acid]	< 0%	< 0%	7.8%	2.3%	6.8%	< 0%	20.7%	2.4%	9.5%	26.5%	9.8%	0.8%	< 0%	2.3%	8.1%	1.6%	3.1%	4.2%	5%	< 0%	inhibition at 10 µM (RPMI-8226): < 0%; inhibition at 10 µM (UO-31): 20.7%; inhibition at 10 µM (MDA-MB231): 8%; inhibition at 10 µM (HS 578T): 8.2%; inhibition at 10 µM (BT-549): 3%; inhibition at 10 µM (T-47D): < 0%; inhibition at 10 µM (PC-3): < 0%; inhibition at 10 µM (DU-145): < 0%; MIC (E. coli ATCC 25,922; [2]): 0.2 µM (≈ 0.13 µg/mL); MIC [1]: 0.87 µM (≈ 0.565 µg/mL); melting point: 263 °C
O=C(O)c1cn(C2CC2)c2cc(N3CCN(C(=O)CCCN4C(=O)S/C(=C\c5ccc(Cl)cc5)C4=O)CC3)c(F)cc2c1=O [3 h]	< 0%	10.7%	3.4%	2.1%	11.8%	0%	18.3%	2.3%	1.2%	38.2%	10.9%	0.7%	< 0%	1.1%	5.1%	< 0%	5.3%	0.7%	4.4%	< 0%	inhibition at 10 µM (RPMI-8226): < 0%; inhibition at 10 µM (UO-31): 28%; inhibition at 10 µM (MDA-MB231): 13.7%; inhibition at 10 µM (HS 578T): < 0%; inhibition at 10 µM (BT-549): 3.8%; inhibition at 10 µM (T-47D): 2%; inhibition at 10 µM (PC-3): < 0%; inhibition at 10 µM (DU-145): < 0%; MIC (E. coli ATCC 25,922; [2]): 0.04 µM (≈ 0.0256 µg/mL); MIC [1]: > 20 µM; melting point: 273 °C
COc1ccc(/C=C2\SC(=O)N(CCCC(=O)N3CCN(c4cc5c(cc4F)c(=O)c(C(=O)O)cn5C4CC4)CC3)C2=O)cc1OC [3f]	7.2%	19.5%	1.3%	10.6%	4.2%	< 0%	7.8%	< 0%	4.4%	2.4%	5.9%	< 0%	< 0%	1.9%	12.3%	< 0%	2.9%	< 0%	1.7%	< 0%	inhibition at 10 µM (RPMI-8226): < 0%; inhibition at 10 µM (UO-31): 14.5%; inhibition at 10 µM (MDA-MB231): 0.1%; inhibition at 10 µM (HS 578T): 1.2%; inhibition at 10 µM (BT-549): 3.4%; inhibition at 10 µM (T-47D): 0.9%; inhibition at 10 µM (PC-3): < 0%; inhibition at 10 µM (DU-145): < 0%; MIC (E. coli ATCC 25,922; [2]): 1.94 to 2.6 µM (≈ 1.29 to 1.73 µg/mL); MIC (E. coli ATCC 25,922; Gram –ve strain): 2.23 µM (≈ 1.48 µg/mL); MIC [1]: > 20 µM; melting point: 241 °C
Cc1ccc(/C=C2\SC(=O)N(CCCC(=O)N3CCN(c4cc5c(cc4F)c(=O)c(C(=O)O)cn5C4CC4)CC3)C2=O)cc1 [3c]	< 0%	< 0%	< 0%	2.4%	< 0%	< 0%	1.7%	3.7%	0.9%	3.5%	< 0%	< 0%	< 0%	3.8%	< 0%	3.2%	< 0%	2.3%	1.5%	7.2%	inhibition at 10 µM (UO-31): 16.5%; inhibition at 10 µM (MDA-MB231): < 0%; inhibition at 10 µM (HS 578T): < 0%; inhibition at 10 µM (T-47D): < 0%; inhibition at 10 µM (PC-3): 1.1%; inhibition at 10 µM (DU-145): < 0%; MIC (E. coli ATCC 25,922; [2]): 0.48 µM (≈ 0.297 µg/mL); MIC [1]: > 20 µM; melting point: 233 to 234 °C
COc1cc(/C=C2\SC(=O)N(CCCC(=O)N3CCN(c4cc5c(cc4F)c(=O)c(C(=O)O)cn5C4CC4)CC3)C2=O)cc(OC)c1OC [3 g]	< 0%	5.4%	3.5%	< 0%	5.1%	< 0%	3.3%	4.4%	0.5%	1.8%	< 0%	0.5%	< 0%	< 0%	6.7%	< 0%	1.9%	< 0%	2.2%	< 0%	inhibition at 10 µM (RPMI-8226): < 0%; inhibition at 10 µM (UO-31): 1.5%; inhibition at 10 µM (MDA-MB231): < 0%; inhibition at 10 µM (HS 578T): 3.2%; inhibition at 10 µM (BT-549): < 0%; inhibition at 10 µM (T-47D): < 0%; inhibition at 10 µM (PC-3): < 0%; inhibition at 10 µM (DU-145): < 0%; MIC (E. coli ATCC 25,922; [2]): 0.25 µM (≈ 0.174 µg/mL); MIC [1]: > 20 µM; melting point: 252 °C
